# Measured values reported in PubChem BioAssay (NCI).
#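 Tested at 5 concentrations; 48 h exposure; 96-well plates; endpoints linearly interpolated, else capped at highest concentration. GI50: concentration for 50% inhibition of growth. Definition used: TGI = concentration required for complete inhibition of growth.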
# Legend:
# Test in all cases: NCI anticancer screen, dose series, 48 h
# HCC-2998 colon = tested on: HCC-2998 colon
# SK-MEL-2 melanoma = tested on: SK-MEL-2 melanoma
# SK-MEL-28 melanoma = tested on: SK-MEL-28 melanoma
# PC-3 prostate = tested on: PC-3 prostate
# SK-OV-3 ovarian = tested on: SK-OV-3 ovarian
# NCI/ADR-RES ovarian = tested on: NCI/ADR-RES ovarian
# A498 renal = tested on: A498 renal
# CAKI-1 renal = tested on: CAKI-1 renal
# COLO 205 colon = tested on: COLO 205 colon
# HOP-92 NSCLC = tested on: HOP-92 NSCLC
# A549 NSCLC = tested on: A549 NSCLC
# NCI-H226 lung = tested on: NCI-H226 lung
# SW-620 colon = tested on: SW-620 colon
# UACC-62 melanoma = tested on: UACC-62 melanoma
# MDA-MB-231 breast = tested on: MDA-MB-231 breast
# BT-549 breast = tested on: BT-549 breast
# NCI-H460 lung = tested on: NCI-H460 lung
# MDA-MB-435 = tested on: MDA-MB-435
# LOX IMVI melanoma = tested on: LOX IMVI melanoma
# NCI-H23 lung = tested on: NCI-H23 lung
# ACHN renal = tested on: ACHN renal
# SK-MEL-5 melanoma = tested on: SK-MEL-5 melanoma
# K-562 leukemia = tested on: K-562 leukemia
# TK-10 renal = tested on: TK-10 renal
# SN12C renal = tested on: SN12C renal
# IGROV1 ovarian = tested on: IGROV1 ovarian
# MDA-N = tested on: MDA-N
# SF-295 CNS = tested on: SF-295 CNS
# MALME-3M melanoma = tested on: MALME-3M melanoma
# HT29 colon = tested on: HT29 colon
# OVCAR-5 ovarian = tested on: OVCAR-5 ovarian
# M14 melanoma = tested on: M14 melanoma
# DU-145 prostate = tested on: DU-145 prostate
# UACC-257 melanoma = tested on: UACC-257 melanoma
# UO-31 renal = tested on: UO-31 renal
# OVCAR-4 ovarian = tested on: OVCAR-4 ovarian
# SF-268 CNS = tested on: SF-268 CNS
# NCI-H522 lung = tested on: NCI-H522 lung
# EKVX NSCLC = tested on: EKVX NSCLC
# RPMI-8226 leukemia = tested on: RPMI-8226 leukemia
# HCT-116 colon = tested on: HCT-116 colon
# T-47D breast = tested on: T-47D breast
# SNB-19 CNS = tested on: SNB-19 CNS
# SR leukemia = tested on: SR leukemia
# HOP-62 NSCLC = tested on: HOP-62 NSCLC
# OVCAR-8 ovarian = tested on: OVCAR-8 ovarian
# CCRF-CEM leukemia = tested on: CCRF-CEM leukemia
# 786-0 renal = tested on: 786-0 renal
# SF-539 CNS = tested on: SF-539 CNS
# MCF7 breast = tested on: MCF7 breast
# HCT-15 colon = tested on: HCT-15 colon
# OVCAR-3 ovarian = tested on: OVCAR-3 ovarian
# KM12 colon = tested on: KM12 colon
# RXF 393 renal = tested on: RXF 393 renal
# U251 CNS = tested on: U251 CNS
# HL-60(TB) leukemia = tested on: HL-60(TB) leukemia
# MOLT-4 leukemia = tested on: MOLT-4 leukemia
smiles,measurement,setting,value
c1ccc2cc3c(cc2c1)Nc1c2ccccc2nc2cccc-3c12,TGI,HCC-2998 colon,3.1 µM
same,TGI,SK-MEL-2 melanoma,2.84 µM
same,TGI,SK-MEL-28 melanoma,3.12 µM
same,TGI,PC-3 prostate,2870 nM
same,TGI,SK-OV-3 ovarian,3.01 µM
same,TGI,NCI/ADR-RES ovarian,4.69 µM
same,TGI,A498 renal,6.8 µM
same,TGI,CAKI-1 renal,3.05 µM
same,TGI,COLO 205 colon,3.02 µM
same,TGI,HOP-92 NSCLC,2.86 µM
same,TGI,A549 NSCLC,3.3 µM
same,TGI,NCI-H226 lung,5.03 µM
same,TGI,SW-620 colon,2910 nM
same,TGI,UACC-62 melanoma,3.57 µM
same,TGI,MDA-MB-231 breast,2450 nM
same,TGI,BT-549 breast,38.4 µM
same,TGI,NCI-H460 lung,3.26 µM
same,TGI,MDA-MB-435,3.43 µM
same,TGI,LOX IMVI melanoma,2.93 µM
same,TGI,NCI-H23 lung,2.61 µM
same,TGI,ACHN renal,2880 nM
same,TGI,SK-MEL-5 melanoma,3.11 µM
same,TGI,K-562 leukemia,> 100 µM
same,TGI,TK-10 renal,3.28 µM
same,TGI,SN12C renal,3.08 µM
same,TGI,IGROV1 ovarian,2.75 µM
same,TGI,MDA-N,2830 nM
same,TGI,SF-295 CNS,2.96 µM
same,TGI,MALME-3M melanoma,3.07 µM
same,TGI,HT29 colon,3.2 µM
same,TGI,OVCAR-5 ovarian,3.22 µM
same,TGI,M14 melanoma,3.76 µM
same,TGI,DU-145 prostate,3.1 µM
same,TGI,UACC-257 melanoma,2.92 µM
same,TGI,UO-31 renal,3 µM
O=C(Nn1c(-c2cccs2)nc2ccc(I)cc2c1=O)c1ccccc1,TGI,OVCAR-4 ovarian,80.6 µM
same,TGI,HCC-2998 colon,58.6 µM
same,TGI,SF-268 CNS,> 100 µM
same,TGI,NCI-H522 lung,59.5 µM
same,TGI,EKVX NSCLC,70.5 µM
same,GI50,SK-MEL-2 melanoma,24 µM
same,TGI,SK-MEL-2 melanoma,69.4 µM
same,TGI,SK-MEL-28 melanoma,53 µM
same,TGI,PC-3 prostate,> 100000 nM
same,GI50,RPMI-8226 leukemia,22.8 µM
same,TGI,RPMI-8226 leukemia,58.1 µM
same,TGI,NCI/ADR-RES ovarian,> 100 µM
same,TGI,HCT-116 colon,> 100 µM
same,TGI,CAKI-1 renal,51 µM
same,TGI,COLO 205 colon,> 100 µM
same,TGI,HOP-92 NSCLC,51.7 µM
same,TGI,A549 NSCLC,45.1 µM
same,TGI,NCI-H226 lung,> 100 µM
same,GI50,T-47D breast,11.1 µM
same,TGI,T-47D breast,37.6 µM
same,TGI,SW-620 colon,> 100000 nM
same,TGI,UACC-62 melanoma,57.3 µM
same,TGI,SNB-19 CNS,64.5 µM
same,TGI,BT-549 breast,51.9 µM
same,TGI,NCI-H460 lung,> 100 µM
same,TGI,MDA-MB-435,45.7 µM
same,TGI,SR leukemia,61.4 µM
same,TGI,LOX IMVI melanoma,46.9 µM
same,TGI,NCI-H23 lung,67.4 µM
same,TGI,ACHN renal,> 100000 nM
same,TGI,SK-MEL-5 melanoma,76.8 µM
same,GI50,K-562 leukemia,43.8 µM
same,TGI,K-562 leukemia,> 100 µM
same,TGI,HOP-62 NSCLC,> 100 µM
same,TGI,OVCAR-8 ovarian,> 100 µM
same,TGI,TK-10 renal,63.1 µM
same,GI50,CCRF-CEM leukemia,38.5 µM
same,TGI,CCRF-CEM leukemia,> 100 µM
same,TGI,786-0 renal,> 100 µM
same,TGI,SN12C renal,> 100 µM
same,GI50,SF-539 CNS,30.1 µM
same,TGI,SF-539 CNS,> 100 µM
same,TGI,IGROV1 ovarian,82.6 µM
same,TGI,MDA-N,> 100000 nM
same,TGI,SF-295 CNS,91.7 µM
same,GI50,MCF7 breast,23.2 µM
same,TGI,MCF7 breast,> 100 µM
same,TGI,HCT-15 colon,> 100 µM
same,TGI,HT29 colon,90.6 µM
same,TGI,OVCAR-3 ovarian,39.3 µM
same,TGI,KM12 colon,81.2 µM
same,TGI,RXF 393 renal,> 100 µM
same,TGI,OVCAR-5 ovarian,> 100 µM
same,TGI,U251 CNS,73.1 µM
same,TGI,M14 melanoma,> 100 µM
same,TGI,DU-145 prostate,46.7 µM
same,TGI,UACC-257 melanoma,31.1 µM
same,GI50,HL-60(TB) leukemia,33.7 µM
same,TGI,HL-60(TB) leukemia,99.7 µM
same,TGI,MOLT-4 leukemia,> 100 µM
same,TGI,UO-31 renal,93.3 µM
